Measurements: the supplement of paper PMC10307832

Assays:
Test in all cases: relative viability (nuclei count vs DMSO), 5 days (fraction); higher = more cells survive
[1] = compound: COc1cc2nc(N3CCCN(C)CC3)nc(NC3CCN(Cc4ccccc4)CC3)c2cc1OC + Cc1cc(Nc2cc(N3CCN(C)CC3)nc(Sc3ccc(NC(=O)C4CC4)cc3)n2)n[nH]1 [Tozasertib] (partner 0.1 µM)
Summary of the method: (§1)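 Lung cancer cell lines in 1536-well plates were dosed by pin tool the day after seeding, either with one drug alone or with a fixed anchor-drug dose plus five library-drug doses (not always all listed) in √10 steps. After 5 days, cells were fixed and their nuclei stained in one step (final 0.05% Triton X-100, 1% formaldehyde, 1 ug/ml Hoechst), then counted on 4× images. Relative viability is the nuclei count in treated wells divided by that in vehicle wells. Values are medians of duplicate plates.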

[2] = compound: COc1cc2nc(N3CCCN(C)CC3)nc(NC3CCN(Cc4ccccc4)CC3)c2cc1OC + N=C(N)NC(=N)NCCc1ccccc1 [Phenformin] (partner 250 µM)
Summary of the method: as §1

AZD6482 + Bortezomib = compound: Cc1cc([C@@H](C)Nc2ccccc2C(=O)O)c2nc(N3CCOCC3)cc(=O)n2c1 [AZD6482] + CC(C)C[C@H](NC(=O)[C@H](Cc1ccccc1)NC(=O)c1cnccn1)B(O)O [Bortezomib] (partner 0.002 µM)
Summary of the method: as §1

AZD6482 + Lapatinib = compound: Cc1cc([C@@H](C)Nc2ccccc2C(=O)O)c2nc(N3CCOCC3)cc(=O)n2c1 [AZD6482] + CS(=O)(=O)CCNCc1ccc(-c2ccc3ncnc(Nc4ccc(OCc5cccc(F)c5)c(Cl)c4)c3c2)o1 [Lapatinib] (partner 2 µM)
Summary of the method: as §1

Cell Line | relative viability ([1]; first compound 0.2 µM) | relative viability ([1]; first compound 0.6325 µM) | relative viability ([1]; first compound 2 µM) | relative viability ([1]; first compound 6.325 µM) | relative viability ([2]; first compound 0.2 µM) | relative viability ([2]; first compound 0.6325 µM) | relative viability ([2]; first compound 2 µM) | relative viability ([2]; first compound 6.325 µM) | relative viability (AZD6482 + Bortezomib; first compound 0.08 µM) | relative viability (AZD6482 + Bortezomib; first compound 0.253 µM) | relative viability (AZD6482 + Bortezomib; first compound 0.8 µM) | relative viability (AZD6482 + Bortezomib; first compound 2.53 µM) | relative viability (AZD6482 + Bortezomib; first compound 8 µM) | relative viability (AZD6482 + Lapatinib; first compound 0.08 µM) | relative viability (AZD6482 + Lapatinib; first compound 0.253 µM) | relative viability (AZD6482 + Lapatinib; first compound 0.8 µM) | relative viability (AZD6482 + Lapatinib; first compound 2.53 µM) | relative viability (AZD6482 + Lapatinib; first compound 8 µM)
PC-3 [JPC-3] | 0.932 | 0.915 | 0.938 | 0.88 | 0.484 | 0.499 | 0.488 | 0.521 | 0.658 | 0.844 | 0.843 | 0.761 | 0.713 | 0.438 | 0.433 | 0.438 | 0.349 | 0.422
PC-14 | 0.587 | 0.61 | 0.64 | 0.505 | 0.584 | 0.703 | 0.527 | 0.265 | 0.785 | 0.917 | 0.913 | 0.67 | 1.02 | 0.257 | 0.234 | 0.255 | 0.196 | 0.219
RERF-LC-KJ | 0.508 | 0.523 | 0.47 | 0.417 | 0.442 | 0.433 | 0.397 | 0.418 | 0.825 | 0.907 | 0.895 | 0.921 | 0.865 | 0.752 | 0.836 | 0.705 | 0.791 | 0.67
SK-LU-1 | 0.363 | 0.349 | 0.363 | 0.352 | 0.537 | 0.517 | 0.616 | 0.462 | 0.776 | 0.642 | 1.16 | 0.589 | 0.46 | – | 0.76 | 0.849 | 0.687 | 0.513
SW 1573 | 0.196 | 0.165 | 0.246 | 0.128 | 0.373 | 0.424 | 0.369 | 0.163 | 0.92 | 0.86 | 0.877 | 0.613 | 0.633 | 1.15 | 1.13 | 1.02 | 0.771 | 0.759
